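Five concentrations, 48 hours, 96-well plates. GI50 = concentration required for 50% inhibition of growth.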 The source made the active and inactive calls. Cut-off read from the data, not from the text of the source: active = GI50 up to about 1.1 µM and inactive = higher.

Data on seven molecules can be found in ChEMBL document CHEMBL1201862, “PubChem BioAssay data set” (2004).

Among the test systems are BT-549; PC-3; MDA-MB-231; DU-145; HT-29; SF-295; Malme-3M; CCRF-CEM; NCI-H23; LOX IMVI; HL-60; SF-268; KM12; IGROV-1; MCF7; ACHN; NCI-H226; SK-MEL-28; M14; SW-620.
Common to all, as to assay: DTP human tumour cell line panel, 48 h

For `Cc1c(C)n(-c2ccccc2)c2nc([S+](C)[O-])nc([S+](C)[O-])c12` (stereo not given), the 50% growth inhibitory concentration (GI50) in the assay with BT-549 was 0.755 µM (active); with PC-3 it was 7 µM (inactive); in the assay with MDA-MB-231, 4.74 µM (inactive); in the assay with DU-145, 14.4 µM (inactive); in the assay with HT-29 it was 6.05 µM (inactive); in the assay on SF-295, 17.6 µM (inactive). The GI50 in the assay on Malme-3M is 1.98 µM (inactive); in the assay with CCRF-CEM it was 1.55 µM (inactive); with NCI-H23 it was 13.9 µM (inactive); in the assay on LOX IMVI, 1.81 µM (inactive); with HL-60 it was 1.38 µM (inactive); in the assay on SF-268, 7.14 µM (inactive). The GI50 with KM12 was 13.3 µM (inactive); with IGROV-1, 3.79 µM (inactive); with MCF7 it was 2.16 µM (inactive); in the assay with ACHN it was 5.83 µM (inactive); in the assay with NCI-H226, 17.9 µM (inactive); in the assay with SK-MEL-28 it was 4.15 µM (inactive). The GI50 is 2.21 µM (inactive) in the assay with M14 and 1.79 µM (inactive) in the assay with SW-620.
Take `COc1cc2c(cc1OCCCCCOc1cc3c(cc1OC)C(=O)N1CCC[C@H]1CN3)N=C[C@@H]1CCCN1C2=O`: the GI50 with BT-549 is 2.66 µM (inactive); in the assay on PC-3 it was 10.1 µM (inactive); in the assay on MDA-MB-231, 2.49 µM (inactive); with DU-145, 11.1 µM (inactive); in the assay on HT-29, 5.04 µM (inactive); in the assay on SF-295 it was 6.14 µM (inactive). Further, the GI50 with Malme-3M is 5.93 µM (inactive); with CCRF-CEM it was 0.233 µM (active); with NCI-H23, 4.8 µM (inactive); in the assay on LOX IMVI it was 1.34 µM (inactive); in the assay on HL-60, 4.3 µM (inactive); in the assay with SF-268, 3.57 µM (inactive). Besides, the GI50 in the assay on KM12 was 2.92 µM (inactive); with IGROV-1, 3.33 µM (inactive); in the assay with MCF7, 15.8 µM (inactive); in the assay on ACHN it was 4.03 µM (inactive); in the assay with NCI-H226 it was 2.48 µM (inactive); in the assay with SK-MEL-28 it was 11.2 µM (inactive). Also, the figures for the GI50 in the assay with M14 and with SW-620 were 2.77 µM (inactive) and 4.25 µM (inactive), respectively.
For `N[C@@H](Cc1ccccc1)C(=O)N1CCC[C@@H]1P(=O)(Oc1ccccc1)Oc1ccccc1`, the GI50 in the assay with BT-549 is > 100 µM (inactive); with PC-3 it was 33.6 µM (inactive); in the assay on MDA-MB-231 it was > 100 µM (inactive); in the assay on DU-145 it was > 100 µM (inactive); in the assay with HT-29 it was 86.3 µM (inactive); with SF-295, > 100 µM (inactive). Besides, the GI50 in the assay with Malme-3M, in the assay with CCRF-CEM, with NCI-H23, in the assay on LOX IMVI, in the assay with HL-60 and in the assay with SF-268 was > 100 µM (inactive) in each case. In addition, the GI50 in the assay with KM12, with IGROV-1, in the assay on MCF7, with ACHN, in the assay on NCI-H226 and in the assay with SK-MEL-28 was > 100 µM (inactive) each time. The GI50 in the assay with M14 and in the assay with SW-620 was > 100 µM (inactive) throughout.
Turning to `CCOC(=O)c1sc2ncnc(N)c2c1C`, the GI50 in the assay on BT-549 was > 100 µM (inactive); in the assay on PC-3, 68.5 µM (inactive); in the assay on MDA-MB-231, > 100 µM (inactive); in the assay with DU-145, 68.7 µM (inactive); in the assay with HT-29, 18.2 µM (inactive); in the assay with SF-295 it was 79.4 µM (inactive). The GI50 in the assay on Malme-3M was 82.8 µM (inactive); with CCRF-CEM it was 62.1 µM (inactive); in the assay on NCI-H23, 70.3 µM (inactive); in the assay on LOX IMVI, 43.8 µM (inactive); with HL-60 it was > 100 µM (inactive); in the assay on SF-268, 68.5 µM (inactive). The GI50 in the assay with KM12 was 47.1 µM (inactive); in the assay on IGROV-1, 22.1 µM (inactive); in the assay on MCF7 it was 51.6 µM (inactive); with ACHN it was 65.8 µM (inactive); in the assay on NCI-H226, 75.5 µM (inactive); with SK-MEL-28, 45.3 µM (inactive). For the same molecule, the figures for the GI50 in the assay with M14 and in the assay with SW-620 were 65 µM (inactive) and > 100 µM (inactive), respectively.
Consider `COc1ccc(-c2cc(-c3ccc(Nc4ccnc5cc(C(F)(F)F)ccc45)cc3)[nH]c(=O)c2C#N)cc1`, for which the GI50 is > 52 µM (inactive) in the assay on BT-549; > 100 µM (inactive) in the assay on PC-3; 24.9 µM (inactive) with MDA-MB-231; > 84.7 µM (inactive) in the assay on DU-145; > 33.2 µM (inactive) with HT-29; > 32.7 µM (inactive) with SF-295. For the same molecule, the GI50 is > 100 µM (inactive) with Malme-3M; > 24 µM (inactive) with CCRF-CEM; > 38.4 µM (inactive) in the assay on NCI-H23; 16.6 µM (inactive) in the assay on LOX IMVI; > 100 µM (inactive) with HL-60; > 41.8 µM (inactive) in the assay with SF-268. Moreover, the GI50 was > 100 µM (inactive) in the assay on KM12; > 81.5 µM (inactive) in the assay on IGROV-1; > 88.7 µM (inactive) in the assay with MCF7; > 42.1 µM (inactive) in the assay with ACHN; > 29.3 µM (inactive) in the assay with NCI-H226; > 72.1 µM (inactive) in the assay with SK-MEL-28. The values for the GI50 with M14 and in the assay on SW-620 were 27.2 µM (inactive) and > 100 µM (inactive), respectively.
On to `Cc1cc(C)nc(SC(C)C(=O)N/N=C/c2ccc(OCc3ccccc3)cc2)n1` (stereo not given), for which the GI50 in the assay with BT-549 is 26.5 µM (inactive); in the assay with PC-3, 22.4 µM (inactive); in the assay with MDA-MB-231, 19.7 µM (inactive); in the assay with DU-145, 37.7 µM (inactive); in the assay on HT-29, 14.5 µM (inactive); in the assay on SF-295 it was 19.1 µM (inactive). Further, the GI50 in the assay on Malme-3M is 22.3 µM (inactive); in the assay with CCRF-CEM, 19.1 µM (inactive); with NCI-H23, 18 µM (inactive); in the assay with LOX IMVI, 22.1 µM (inactive); in the assay on HL-60 it was 14.5 µM (inactive); in the assay on SF-268, 40.6 µM (inactive). For the same molecule, the GI50 with KM12 was > 100 µM (inactive); in the assay with IGROV-1 it was 54.8 µM (inactive); in the assay with MCF7, 21 µM (inactive); in the assay on ACHN it was 25.2 µM (inactive); in the assay with NCI-H226, 18.9 µM (inactive); with SK-MEL-28 it was 53.2 µM (inactive). For the same molecule, the GI50 with M14 was 36.8 µM (inactive); in the assay on SW-620 it was 39.5 µM (inactive).
On to `CCCNC1=C2CC(C)CC(OC)[C@@H](O)[C@H](C)/C=C(\C)C(OC(N)=O)C(OC)/C=C\C=C(/C)C(=O)NC(=CC1=O)C2=O` (stereo not given in full), for which the GI50 in the assay with BT-549 is 12.3 µM (inactive); with PC-3, 0.411 µM (active); in the assay on MDA-MB-231, 0.318 µM (active); in the assay with DU-145 it was 0.111 µM (active); in the assay with HT-29 it was 0.0101 µM (active); in the assay on SF-295, 0.222 µM (active). The concentration for 50% growth inhibition (GI50) with Malme-3M was 0.0612 µM (active); in the assay with CCRF-CEM, 0.273 µM (active); in the assay on NCI-H23, 0.0847 µM (active); with LOX IMVI, 0.103 µM (active); with HL-60, 0.214 µM (active); in the assay with SF-268, 0.524 µM (active). For the same molecule, the GI50 was 0.0362 µM (active) in the assay with KM12; 0.498 µM (active) with IGROV-1; 0.124 µM (active) in the assay on MCF7; 0.502 µM (active) with ACHN; 0.551 µM (active) with NCI-H226; 0.0627 µM (active) with SK-MEL-28. For the same molecule, the 50% growth inhibitory concentration (GI50) is 0.561 µM (active) in the assay on M14 and 0.0379 µM (active) in the assay on SW-620.

In general, GI50 refers to the concentration giving 50% growth inhibition.
